Experimental data taken from the supplement of paper PMC12076712.

Tests used:
Assay in all cases: pIC50, kinobeads binding competition
Settings in all cases: cell material: Jurkat lysate
[1] = molecular target: ABL2 (UniProt P42684)
[2] = molecular target: CAMKK1 (UniProt Q8N5S9)
[3] = molecular target: T1, ITK (UniProt Q08881)
T1 sequence (whole entry): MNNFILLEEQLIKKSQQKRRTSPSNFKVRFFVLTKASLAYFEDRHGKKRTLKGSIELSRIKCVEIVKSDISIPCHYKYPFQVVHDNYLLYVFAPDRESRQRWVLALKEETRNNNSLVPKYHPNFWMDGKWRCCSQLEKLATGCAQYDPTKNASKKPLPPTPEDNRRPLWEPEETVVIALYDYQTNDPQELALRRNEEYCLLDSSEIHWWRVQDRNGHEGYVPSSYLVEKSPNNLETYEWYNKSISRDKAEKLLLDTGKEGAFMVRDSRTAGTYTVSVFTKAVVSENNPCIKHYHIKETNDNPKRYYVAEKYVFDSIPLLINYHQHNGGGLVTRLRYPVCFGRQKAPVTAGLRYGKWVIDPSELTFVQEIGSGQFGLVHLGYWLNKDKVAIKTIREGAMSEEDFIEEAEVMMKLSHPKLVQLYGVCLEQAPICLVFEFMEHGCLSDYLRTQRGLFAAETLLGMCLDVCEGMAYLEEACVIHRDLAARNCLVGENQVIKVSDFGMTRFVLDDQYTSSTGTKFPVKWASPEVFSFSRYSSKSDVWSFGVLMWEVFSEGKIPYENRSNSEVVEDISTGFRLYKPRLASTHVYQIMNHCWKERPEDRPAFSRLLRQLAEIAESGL

[4] = molecular target: TNIK (UniProt Q9UKE5)
[5] = molecular target: UniProt P07947
UniProt P07947, sequence (P07947 whole entry, looked up): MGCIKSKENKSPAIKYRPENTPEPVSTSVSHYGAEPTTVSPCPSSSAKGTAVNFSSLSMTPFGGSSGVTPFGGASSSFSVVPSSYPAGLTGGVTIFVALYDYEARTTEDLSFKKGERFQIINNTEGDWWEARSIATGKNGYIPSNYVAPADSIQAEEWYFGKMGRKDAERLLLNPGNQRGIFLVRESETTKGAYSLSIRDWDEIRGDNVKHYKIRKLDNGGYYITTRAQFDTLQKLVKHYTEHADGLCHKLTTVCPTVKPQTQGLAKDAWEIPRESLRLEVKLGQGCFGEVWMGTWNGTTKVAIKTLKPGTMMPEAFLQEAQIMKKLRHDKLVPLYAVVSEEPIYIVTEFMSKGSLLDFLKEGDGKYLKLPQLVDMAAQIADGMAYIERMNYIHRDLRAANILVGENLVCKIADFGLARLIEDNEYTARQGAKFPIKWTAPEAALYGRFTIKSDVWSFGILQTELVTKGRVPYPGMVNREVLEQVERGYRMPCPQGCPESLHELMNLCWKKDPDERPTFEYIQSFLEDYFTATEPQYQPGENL

[6] = molecular target: UniProt P17252
[7] = molecular target: T2, UniProt P52564
T2 sequence (whole entry): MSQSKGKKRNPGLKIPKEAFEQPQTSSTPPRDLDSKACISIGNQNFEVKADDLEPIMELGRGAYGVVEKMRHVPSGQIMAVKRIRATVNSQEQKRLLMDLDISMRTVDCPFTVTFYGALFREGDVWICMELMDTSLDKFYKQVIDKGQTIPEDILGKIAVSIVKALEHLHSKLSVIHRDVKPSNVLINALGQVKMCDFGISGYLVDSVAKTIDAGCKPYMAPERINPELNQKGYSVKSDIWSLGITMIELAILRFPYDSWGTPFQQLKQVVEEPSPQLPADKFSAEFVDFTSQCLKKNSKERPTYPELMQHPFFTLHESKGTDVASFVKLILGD

[8] = molecular target: UniProt P68400
UniProt P68400, sequence (P68400 whole entry, looked up): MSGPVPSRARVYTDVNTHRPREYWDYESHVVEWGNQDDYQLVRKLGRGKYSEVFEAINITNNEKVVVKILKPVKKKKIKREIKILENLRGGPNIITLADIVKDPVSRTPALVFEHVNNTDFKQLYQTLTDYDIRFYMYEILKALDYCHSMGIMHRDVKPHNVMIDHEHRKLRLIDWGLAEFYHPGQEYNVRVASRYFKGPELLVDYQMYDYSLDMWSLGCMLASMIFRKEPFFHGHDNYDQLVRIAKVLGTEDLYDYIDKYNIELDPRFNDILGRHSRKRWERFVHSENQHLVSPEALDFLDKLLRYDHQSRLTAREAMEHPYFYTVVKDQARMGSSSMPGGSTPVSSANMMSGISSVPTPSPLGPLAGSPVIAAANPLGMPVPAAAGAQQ

[9] = molecular target: T3, UniProt Q13043
T3 sequence (whole entry): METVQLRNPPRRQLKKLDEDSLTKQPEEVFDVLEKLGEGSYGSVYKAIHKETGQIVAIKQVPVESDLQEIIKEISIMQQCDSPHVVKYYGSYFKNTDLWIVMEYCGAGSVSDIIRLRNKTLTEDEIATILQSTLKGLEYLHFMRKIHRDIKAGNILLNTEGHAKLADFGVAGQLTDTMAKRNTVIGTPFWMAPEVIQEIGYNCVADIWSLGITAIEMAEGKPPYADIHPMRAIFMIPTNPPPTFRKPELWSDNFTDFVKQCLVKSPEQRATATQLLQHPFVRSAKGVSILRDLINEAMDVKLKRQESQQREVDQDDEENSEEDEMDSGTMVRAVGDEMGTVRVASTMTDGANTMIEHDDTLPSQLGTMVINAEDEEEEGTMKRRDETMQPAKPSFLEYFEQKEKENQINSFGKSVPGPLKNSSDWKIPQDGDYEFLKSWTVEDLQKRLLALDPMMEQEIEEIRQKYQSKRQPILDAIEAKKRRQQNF

[10] = molecular target: T4, UniProt Q13163
T4 sequence (whole entry): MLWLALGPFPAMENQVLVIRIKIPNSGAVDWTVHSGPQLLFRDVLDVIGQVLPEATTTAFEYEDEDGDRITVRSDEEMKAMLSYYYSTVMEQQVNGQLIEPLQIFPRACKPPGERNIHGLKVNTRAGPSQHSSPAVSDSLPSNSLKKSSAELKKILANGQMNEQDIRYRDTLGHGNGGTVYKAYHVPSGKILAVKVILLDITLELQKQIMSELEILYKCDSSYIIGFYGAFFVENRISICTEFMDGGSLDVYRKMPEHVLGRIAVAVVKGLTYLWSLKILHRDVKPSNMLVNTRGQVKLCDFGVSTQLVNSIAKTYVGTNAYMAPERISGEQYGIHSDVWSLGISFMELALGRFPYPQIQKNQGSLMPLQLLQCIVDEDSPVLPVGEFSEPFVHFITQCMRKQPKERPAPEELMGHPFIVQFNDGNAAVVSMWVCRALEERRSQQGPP

[11] = molecular target: UniProt Q8NI60
UniProt Q8NI60, sequence (Q8NI60 whole entry, looked up): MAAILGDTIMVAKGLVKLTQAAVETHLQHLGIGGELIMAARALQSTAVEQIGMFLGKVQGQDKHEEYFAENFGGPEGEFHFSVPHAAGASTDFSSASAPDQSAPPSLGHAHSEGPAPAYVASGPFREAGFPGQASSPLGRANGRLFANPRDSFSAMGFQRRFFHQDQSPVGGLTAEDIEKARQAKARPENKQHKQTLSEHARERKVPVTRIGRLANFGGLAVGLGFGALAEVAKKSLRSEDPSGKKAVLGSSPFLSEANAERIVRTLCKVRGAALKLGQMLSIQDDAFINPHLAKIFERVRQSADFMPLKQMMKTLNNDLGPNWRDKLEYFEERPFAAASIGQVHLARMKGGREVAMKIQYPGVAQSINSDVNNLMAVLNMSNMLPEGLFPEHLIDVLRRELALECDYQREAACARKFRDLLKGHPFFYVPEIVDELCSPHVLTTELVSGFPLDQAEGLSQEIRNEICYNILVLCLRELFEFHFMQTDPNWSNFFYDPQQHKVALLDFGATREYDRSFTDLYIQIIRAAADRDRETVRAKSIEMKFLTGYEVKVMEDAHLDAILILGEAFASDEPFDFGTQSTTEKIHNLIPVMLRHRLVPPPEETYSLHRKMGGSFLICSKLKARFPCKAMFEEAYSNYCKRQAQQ

[12] = molecular target: T5, UniProt Q99759
T5 sequence (whole entry): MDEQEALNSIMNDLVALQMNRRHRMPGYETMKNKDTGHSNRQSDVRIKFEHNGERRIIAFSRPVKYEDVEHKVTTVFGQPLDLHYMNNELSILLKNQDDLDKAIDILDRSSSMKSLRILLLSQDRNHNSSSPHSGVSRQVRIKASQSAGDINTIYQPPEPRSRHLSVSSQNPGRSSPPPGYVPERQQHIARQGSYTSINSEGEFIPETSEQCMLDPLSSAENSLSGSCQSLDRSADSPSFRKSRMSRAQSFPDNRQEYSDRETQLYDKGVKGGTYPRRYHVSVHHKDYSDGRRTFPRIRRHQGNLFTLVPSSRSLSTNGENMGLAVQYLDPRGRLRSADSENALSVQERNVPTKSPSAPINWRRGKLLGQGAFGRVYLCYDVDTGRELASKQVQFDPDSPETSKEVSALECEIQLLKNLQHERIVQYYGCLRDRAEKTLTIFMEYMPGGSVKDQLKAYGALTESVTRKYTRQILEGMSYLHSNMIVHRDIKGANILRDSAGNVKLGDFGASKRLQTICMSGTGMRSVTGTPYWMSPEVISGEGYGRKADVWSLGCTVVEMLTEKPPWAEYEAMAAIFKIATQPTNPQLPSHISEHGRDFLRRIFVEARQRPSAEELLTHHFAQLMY

[13] = molecular target: UniProt Q9H0K1
UniProt Q9H0K1, sequence (Q9H0K1 whole entry, looked up): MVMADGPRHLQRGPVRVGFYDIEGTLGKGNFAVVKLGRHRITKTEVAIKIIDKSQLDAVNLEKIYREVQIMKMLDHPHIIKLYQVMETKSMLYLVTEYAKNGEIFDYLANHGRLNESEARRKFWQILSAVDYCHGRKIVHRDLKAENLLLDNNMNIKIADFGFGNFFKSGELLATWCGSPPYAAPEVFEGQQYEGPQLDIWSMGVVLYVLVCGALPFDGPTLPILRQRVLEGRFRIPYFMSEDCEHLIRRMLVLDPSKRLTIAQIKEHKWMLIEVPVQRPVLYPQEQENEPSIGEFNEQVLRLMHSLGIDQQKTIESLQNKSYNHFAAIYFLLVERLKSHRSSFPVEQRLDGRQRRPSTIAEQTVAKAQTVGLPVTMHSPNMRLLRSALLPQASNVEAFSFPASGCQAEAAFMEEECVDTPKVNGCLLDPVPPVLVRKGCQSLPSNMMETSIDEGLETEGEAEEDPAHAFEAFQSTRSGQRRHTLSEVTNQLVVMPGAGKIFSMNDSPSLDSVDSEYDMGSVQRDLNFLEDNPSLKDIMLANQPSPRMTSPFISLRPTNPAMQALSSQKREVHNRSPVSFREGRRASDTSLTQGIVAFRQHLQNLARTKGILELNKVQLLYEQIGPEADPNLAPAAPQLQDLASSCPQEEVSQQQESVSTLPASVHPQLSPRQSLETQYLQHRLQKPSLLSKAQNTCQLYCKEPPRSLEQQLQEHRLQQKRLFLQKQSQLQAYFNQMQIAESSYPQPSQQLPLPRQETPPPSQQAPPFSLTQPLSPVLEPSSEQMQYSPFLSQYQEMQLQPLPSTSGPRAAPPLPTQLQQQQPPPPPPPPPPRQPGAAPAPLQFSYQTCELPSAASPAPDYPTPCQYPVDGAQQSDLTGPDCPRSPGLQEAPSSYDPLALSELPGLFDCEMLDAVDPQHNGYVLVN

[14] = molecular target: UniProt Q9NSY1

ABL2, sequence (P42684 whole entry): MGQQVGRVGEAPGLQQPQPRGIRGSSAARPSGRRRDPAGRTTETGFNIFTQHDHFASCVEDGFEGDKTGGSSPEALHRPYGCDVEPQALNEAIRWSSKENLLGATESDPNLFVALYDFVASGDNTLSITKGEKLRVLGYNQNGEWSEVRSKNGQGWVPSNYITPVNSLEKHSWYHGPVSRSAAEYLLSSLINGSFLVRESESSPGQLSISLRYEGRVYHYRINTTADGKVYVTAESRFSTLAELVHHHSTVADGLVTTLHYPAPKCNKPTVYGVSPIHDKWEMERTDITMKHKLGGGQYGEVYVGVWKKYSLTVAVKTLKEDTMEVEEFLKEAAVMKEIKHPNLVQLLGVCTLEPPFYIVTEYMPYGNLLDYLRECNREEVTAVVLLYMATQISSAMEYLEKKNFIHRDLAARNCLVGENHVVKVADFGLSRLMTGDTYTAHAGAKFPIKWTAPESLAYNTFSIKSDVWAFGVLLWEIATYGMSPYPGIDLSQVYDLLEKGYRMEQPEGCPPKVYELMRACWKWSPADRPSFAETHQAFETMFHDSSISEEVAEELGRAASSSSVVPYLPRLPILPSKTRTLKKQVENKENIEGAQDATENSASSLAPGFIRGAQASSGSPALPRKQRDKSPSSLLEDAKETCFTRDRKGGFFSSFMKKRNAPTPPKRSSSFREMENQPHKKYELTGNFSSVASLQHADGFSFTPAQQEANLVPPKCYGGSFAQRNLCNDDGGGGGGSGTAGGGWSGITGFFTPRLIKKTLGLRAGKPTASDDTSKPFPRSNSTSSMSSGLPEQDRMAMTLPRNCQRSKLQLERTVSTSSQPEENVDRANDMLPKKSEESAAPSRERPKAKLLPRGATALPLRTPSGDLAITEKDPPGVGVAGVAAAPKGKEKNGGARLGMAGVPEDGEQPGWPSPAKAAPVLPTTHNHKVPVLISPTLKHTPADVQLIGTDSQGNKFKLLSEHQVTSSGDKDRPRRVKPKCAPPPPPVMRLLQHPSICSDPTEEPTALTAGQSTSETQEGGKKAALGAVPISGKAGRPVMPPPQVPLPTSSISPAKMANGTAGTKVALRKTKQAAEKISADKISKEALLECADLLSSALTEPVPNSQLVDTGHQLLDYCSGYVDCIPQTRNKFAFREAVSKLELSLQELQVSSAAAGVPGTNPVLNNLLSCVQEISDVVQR
CAMKK1, sequence (Q8N5S9 whole entry, looked up): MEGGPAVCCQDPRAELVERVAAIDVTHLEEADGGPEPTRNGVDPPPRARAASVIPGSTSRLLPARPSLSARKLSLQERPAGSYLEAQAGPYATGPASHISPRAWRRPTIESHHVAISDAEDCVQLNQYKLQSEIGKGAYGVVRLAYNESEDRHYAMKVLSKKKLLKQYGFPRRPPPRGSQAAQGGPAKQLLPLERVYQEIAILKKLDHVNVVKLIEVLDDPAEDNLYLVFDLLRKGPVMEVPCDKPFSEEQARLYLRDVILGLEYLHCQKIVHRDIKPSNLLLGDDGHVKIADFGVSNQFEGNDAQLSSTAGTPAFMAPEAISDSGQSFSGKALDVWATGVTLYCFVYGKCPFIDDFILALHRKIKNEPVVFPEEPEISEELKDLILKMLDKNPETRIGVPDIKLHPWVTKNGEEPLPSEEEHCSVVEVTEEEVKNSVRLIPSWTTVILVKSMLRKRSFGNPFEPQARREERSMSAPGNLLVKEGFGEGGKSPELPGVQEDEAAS

## CCc1cnn2c(NCc3ccc[n+]([O-])c3)cc(N3CCCC[C@H]3CCO)nc12 [dinaciclib]
[1]
  pIC50: < 4.52
[2]
  pIC50: 4.6
[3]
  pIC50: < 4.52
[4]
  pIC50: < 4.52
[5]
  pIC50: < 4.52
[6]
  pIC50: < 4.52
[7]
  pIC50: < 4.52
[8]
  pIC50: < 4.52
[9]
  pIC50: < 4.52
[10]
  pIC50: < 4.52
[11]
  pIC50: < 4.52
[12]
  pIC50: < 4.52
[13]
  pIC50: < 4.52
[14]
  pIC50: < 4.52
